Literature values as cited in article PMC5589077 (ACS chemical neuroscience, 2015).
No end group written: not given here.

Experiments:
[1] = test system: nonhuman primates with established LID; conditions: without reducing antiparkinsonian benefits; cited from earlier work
α6/α3β2β3-nAChR [2] = conditions: calcium-flux, cited from earlier work
α4β2-nAChR = conditions: read-out: Ki at α4β2-nAChR; cited from earlier work
rats [3] = conditions: cited from earlier work
α6/α3β2β3-nAChR [4] = conditions: read-out: Ki at α6/α3β2β3-nAChR; cited from earlier work
rats [5] = conditions: rat, in vivo; cited from earlier work
rats [6] = conditions: cited from earlier work; remark: listed apart in the source

O=C(C1CC1)N1CC2CC(C1)N2 [compound 8, 3-cyclopropylcarbonyl-3,6-dazabicyclo[3.1.1]heptane]
effect on L-dopa induced dyskinesia (LID) [1]: ameliorated
Emax at α6/α3β2β3-nAChR (α6/α3β2β3-nAChR [2]): 100%
EC50 (α6/α3β2β3-nAChR [2]; read-out: EC50 at α6/α3β2β3-nAChR): 80 nM
Ki (α4β2-nAChR): 3 nM
effect on abnormal involuntary movements (AIMs) (rats [3]): reduced abnormal involuntary movements
Ki (α6/α3β2β3-nAChR [4]): 21 nM

α-Ctx MII (GCCSNPVCHLEHSNLC; ends and bridges not checked; cysteine pairing not given here; UniProt P56636 49-64, looked up)
effect on established nicotine self-administration (rats [5]): attenuated established nicotine self-administration

Cc1ccc[n+](CCCCCCCCCC[n+]2cccc(C)c2)c1 [compound 9, N,N′-decane-diyl-bis-3-picolinium]
effect on nicotine SA (rats [6]): reduce nicotine SA
